Laboratory results as given in patent publication US7750148B2, “Intermediate compound for the production of β-lactamase-resistant cephalosporin ester compounds and salts thereof” (Zhejiang Yongning Pharmaceutical Factory, priority 2003, dated 2010).

What was measured:
[1] = Mouse maximum tolerable dose experiment (acute toxicity); format: in vivo, Kunming mice; conditions: for abnormalities in the organs after killed (autopsy) / symptoms of toxic reactions: 5 g/kg intragastric; for abnormalities in the organs after killed (autopsy): after 7 days observation; for symptoms of toxic reactions: fasted for 16 hours; for symptoms of toxic reactions / Death rate: 7 days observation; for Death rate / Death number during observation: 5 g/kg/24 hr intragastric
Procedure: tested samples (YR-1, YR-2) are the same as above.
Strain: Kunming mice; source: Animal Facility of Shanghai Institute of Pharmaceutical Industry; certificate number: Hudonghezhengzi No. 107; animal numbers: 20; Sex: same number of male and female mice; Body weight: 18-21 g; fast time: 16 hours.
Preparation of samples: 5 g/kg (prepared with 5% carboxymethyl cellulose CMC); volume accepted: 0.6 ml/20 g body weight/each time; administration times: once; dosage: 5 g/kg/24 hr
Intragastric Administration
20 mice, 10 male and 10 female, were given YR-1 or YR-2 via intragastric administration, observed manifestation of mice toxic symptom immediately after administration, recorded mice death number.
Observed manifestation of mice toxic symptom immediately after administration, observed twice each day (morning and evening).
Toxic reaction: recorded behaviors of mice, skin, respiration, urination and defecation, appetite, checked if there are abnormal secretions appeared in the nose, eye and mouth.
Observation period: 7 days, killed all the surviving mice after observation period, and autopsied to see if there is any abnormality existed in the mice organs.

[2] = test system: Shigella sonnet 51081; test: In vitro antibacterial activity (MIC, agar double dilution); format: cell-based
Source text: (§1) tested samples YR-1, YR-2 were the ones prepared in example 1 and example 5 respectively, control samples were cefetamet sodium (CTM), cefuroxime sodium (CRX), cefetamet sodium+sulbactam sodium (CTM+SBT) (molar ratio 1:1), cefuroxime+sulbactam sodium (CRX+SBT) (molar ratio 1:1). All control samples (have been sold on the market) were supplied by Zhejiang Yongning pharmaceutical factory.
(§2) Staphylococcus aureus 26003, Diplococcus lanceolatus 31002, E. coli 44102, Shigella sonnet 51081, Shigella bogdii 51313, Shigella flexneri 51573, Proteus mirabilis 49005, Bacillus proteus 49085, Proteus morganii 49086, Pseudomonas aeruginosa 10124, Bacillus pneumoniae 46101, Salmonella enteritidis 50041, Salmonella typhi 50097, Citrobacter 48017, Candida ciferii 41002 were supplied by Shanghai Hygienic and Antiepidemic Station.
(§3) Mueller-Hinton Agar (M.H) culture medium, batch number 20040528 (Shanghai Reagent Supply Research Center, China Diarrhea Disease Control).
(§4) Adopted agar double dilution, inoculated using multipoint inoculator, inoculated 10^5CFU/ML each point, cultured for 24 hours at 37° C., observed and recorded the results, set the least concentration of the antibacterial drug that can inhibit bacteria growth as the minimum inhibitory concentration (MIC).

[3] = test system: Shigella flexneri 51573; test: as above; format: cell-based
Source text: as §1, §2, §3, §4

[4] = test system: Diplococcus lanceolatus 31002; test: as above; format: cell-based
Source text: as §1, §2, §3, §4

[5] = test system: Proteus mirabilis 49005; test: as above; format: cell-based
Source text: as §1, §2, §3, §4

[6] = test system: Bacillus pneumoniae 46101; test: as above; format: cell-based
Source text: as §1, §2, §3, §4

[7] = test system: Candida ciferii 41002; test: as above; format: cell-based
Source text: as §1, §2, §3, §4

[8] = test system: Pseudomonas aeruginosa 10124; test: as above; format: cell-based
Source text: as §1, §2, §3, §4

[9] = test system: Shigella bogdii 51313; test: as above; format: cell-based
Source text: as §1, §2, §3, §4

[10] = test system: Citrobacter 48017; test: as above; format: cell-based
Source text: as §1, §2, §3, §4

[11] = test system: E. coli 44102; test: as above; format: cell-based
Source text: as §1, §2, §3, §4

[12] = test system: Staphylococcus aureus 26003; test: as above; format: cell-based
Source text: as §1, §2, §3, §4

[13] = test system: Bacillus proteus 49085; test: as above; format: cell-based
Source text: as §1, §2, §3, §4

[14] = test system: Salmonella enteritidis 50041; test: as above; format: cell-based
Source text: as §1, §2, §3, §4

[15] = test system: Salmonella typhi 50097; test: as above; format: cell-based; conditions: 10^5CFU/ML each point, 24 hours at 37° C.
Source text: as §1, §2, §3, §4

| Compound | abnormalities in the organs after killed (autopsy) ([1]; Kunming mice) | symptoms of toxic reactions ([1]; Kunming mice) | Death rate ([1]; female mice) [%] | Death number during observation ([1]; female mice, day 1) | Death number during observation ([1]; female mice, day 2) | Death number during observation ([1]; female mice, day 3) | Death number during observation ([1]; female mice, day 4) | Death number during observation ([1]; female mice, day 5) | Death number during observation ([1]; female mice, day 6) | Death number during observation ([1]; female mice, day 7) | Death rate ([1]; male mice) [%] | Death number during observation ([1]; male mice, day 1) | Death number during observation ([1]; male mice, day 2) | Death number during observation ([1]; male mice, day 3) | Death number during observation ([1]; male mice, day 4) | Death number during observation ([1]; male mice, day 5) | Death number during observation ([1]; male mice, day 6) | Death number during observation ([1]; male mice, day 7) | also measured |
| --- | --- | --- | --- | --- | --- | --- | --- | --- | --- | --- | --- | --- | --- | --- | --- | --- | --- | --- | --- |
| 5-thia-1-aza-bicyclo [4,2,0] octane-2-ene-2-carboxylic acid, 7-[[(2-amino-4-thiazolyl) (methoxy imine) acetyl]amino]-3-methyl-8-oxo-, [[3,3-dimethyl-4,4-dioxy-7-oxo-4-thia-1-aza-bicyclo [3,2,0] heptane-2-group]carbonyloxy]oxy]methyl ester [YR-1] | no abnormalities were observed in the organs | no obvious abnormal symptoms of toxic reactions | 0 | 0 | 0 | 0 | 0 | 0 | 0 | 0 | 0 | 0 | 0 | 0 | 0 | 0 | 0 | 0 | MIC of the drug to bacteria ([2]; Shigella sonnet 51081, 10^5CFU/ML each point, 24 hours at 37° C.): 0.39 mg/L; MIC of the drug to bacteria ([3]; Shigella flexneri 51573, 10^5CFU/ML each point, 24 hours at 37° C.): 0.39 mg/L; MIC of the drug to bacteria ([4]; Diplococcus lanceolatus 31002, 10^5CFU/ML each point, 24 hours at 37° C.): 100 mg/L; MIC of the drug to bacteria ([5]; Proteus mirabilis 49005, 10^5CFU/ML each point, 24 hours at 37° C.): 0.098 mg/L; MIC of the drug to bacteria ([6]; Bacillus pneumoniae 46101, 10^5CFU/ML each point, 24 hours at 37° C.): 0.78 mg/L; MIC of the drug to bacteria ([7]; Candida ciferii 41002, 10^5CFU/ML each point, 24 hours at 37° C.): 0.78 mg/L; MIC of the drug to bacteria ([8]; Pseudomonas aeruginosa 10124, 10^5CFU/ML each point, 24 hours at 37° C.): 100 mg/L; MIC of the drug to bacteria ([9]; Shigella bogdii 51313, 10^5CFU/ML each point, 24 hours at 37° C.): 0.39 mg/L; MIC of the drug to bacteria ([10]; Citrobacter 48017, 10^5CFU/ML each point, 24 hours at 37° C.): 1.56 mg/L; MIC of the drug to bacteria ([11]; E. coli 44102, 10^5CFU/ML each point, 24 hours at 37° C.): 1.56 mg/L; MIC of the drug to bacteria ([12]; Staphylococcus aureus 26003, 10^5CFU/ML each point, 24 hours at 37° C.): 100 mg/L; MIC of the drug to bacteria ([13]; Bacillus proteus 49085, 10^5CFU/ML each point, 24 hours at 37° C.): 0.195 mg/L; MIC of the drug to bacteria ([14]; Salmonella enteritidis 50041, 10^5CFU/ML each point, 24 hours at 37° C.): 1.56 mg/L; MIC of the drug to bacteria [15]: 1.56 mg/L |
| CON=C(C(=O)NC1C(=O)N2C(C(=O)OCOC(=O)C3N4C(=O)CC4S(=O)(=O)C3(C)C)=C(COC(N)=O)CSC12)c1ccco1 (centres unmarked) [YR-2, 5-thia-1-aza-bicyclo [4,2,0] octane-2-ene-2-carboxylic acid, 7-[[(2-furane (methoxy imine)acetyl)amino]-3-[[(aminocarbonyloxy)oxy]methyl]-8-oxo-, [[3,3-dimethyl-4,4-dioxy-7-oxo-4-thia-1-aza-bicyclo[3,2,0]heptane-2-group]carbonyloxy]oxy]methyl ester] | no abnormalities were observed in the organs | no obvious abnormal symptoms of toxic reactions | 0 | 0 | 0 | 0 | 0 | 0 | 0 | 0 | 0 | 0 | 0 | 0 | 0 | 0 | 0 | 0 | LD50 at 7 days ([1]; both sexes, mouse, in vivo, po, 5 g/kg, Kunming mice, intragastric administration, once): > 5000 mg/kg; MIC ([2]; Shigella, 51081, 24 h, read-out: MIC of the drug to bacteria): 1.56 mg/L; MIC ([3]; Shigella flexneri, 51573, 24 h, read-out: MIC of the drug to bacteria): 3.13 mg/L; MIC ([4]; 24 h, read-out: MIC of the drug to bacteria): 25 mg/L; MIC ([5]; Proteus mirabilis, 49005, 24 h, read-out: MIC of the drug to bacteria): 3.13 mg/L; MIC ([6]; Klebsiella pneumoniae, 46101, 24 h, read-out: MIC of the drug to bacteria): 12.5 mg/L; MIC ([7]; Candida, 41002, 24 h, read-out: MIC of the drug to bacteria): 50 mg/L; MIC ([8]; Pseudomonas aeruginosa, 10124, 24 h, read-out: MIC of the drug to bacteria): 100 mg/L; MIC ([9]; Shigella, 51313, 24 h, read-out: MIC of the drug to bacteria): 1.56 mg/L; MIC ([10]; Citrobacter, 48017, 24 h, read-out: MIC of the drug to bacteria): 3.13 mg/L; MIC ([11]; Escherichia coli, 44102, 24 h, read-out: MIC of the drug to bacteria): 12.5 mg/L; MIC ([12]; Staphylococcus aureus, 26003, 24 h, read-out: MIC of the drug to bacteria): 6.25 mg/L; MIC ([13]; Bacillus, 49085, 24 h, read-out: MIC of the drug to bacteria): 0.78 mg/L; MIC ([14]; Salmonella enterica, ENTERITIDIS, 24 h, read-out: MIC of the drug to bacteria): 12.5 mg/L; MIC ([15]; Salmonella enterica, read-out: MIC of the drug to bacteria): 6.25 mg/L |
